From article PMC8691750, “Euphorbia Factor L2 ameliorates the Progression of K/BxN Serum-Induced Arthritis by Blocking TLR7 Mediated IRAK4/IKKβ/IRF5 and NF-kB Signaling Pathways” (Frontiers in Pharmacology, 2021)

How the values were obtained:
[1] = tested on: TLR7 (R837) / TLR3 (poly:IC) induced cytokine production in BMDMs; experiment: ELISA of IL-1β and IL-6 in supernatant of R837 and/or poly:IC stimulated BMDMs; type: cell-based, C57BL/6 mice
Procedure: (§1) RAW264.7 cells, a mouse macrophage cell line, were cultured in DMEM medium containing 10% fetal bovine serum (FBS), 1% penicillin-streptomycin and maintained at 37 °C in 5% CO2 humidified air. Bone marrow-derived macrophages (BMDMs) generation was performed as following description. In brief, bone marrow cells were harvested from tibias and femurs of C57BL/6 mice and differentiated for 7 days in DMEM medium supplemented with 10% FBS, 1% penicillin-streptomycin and 50 ng/ml M-CSF. For human peripheral blood mononuclear cells (PBMCs) preparation, 5 ml peripheral venous blood was obtained from healthy donors in West China Hospital. PBMCs were isolated with Human Lymphocyte Separation Medium (LTS1077, Tian Jing, China) according to the manufacturer’s instructions. The experimental protocols were performed according to the approved guidelines established by the Institutional Human Research Subject Protection Committee of the Ethics Committee of West China Hospital, Sichuan University, China.
RAW264.7 cells (5×10^5/ml), BMDMs (5×10^5/ml) and PBMCs (2×10^6/ml) were plated in 96-well plates and incubated overnight. […] For the anti-inflammatory molecular mechanism study, RAW264.7 cells (5×10^5/ml) were plated in 96-well plates and stimulated with R837 (20 μg/ml) with or without the addition of NF-κB inhibitor (JSH-23, […]) for 24 h. After 24 h, the culture supernatant was collected for cytokines measurements.
(§2) IL-4, IL-17A and TNF-α in sera from different group mice were measured using CBA Multiplex kit (BD, United States). The concentrations of IL-1β and IL-6 in serum or supernatant were detected by ELISA Kit (MULTI SCIENCES, China) according to the manufacturers’ instructions.

[2] = tested on: TLR7 (R837) induced cytokine production in PBMCs; experiment: ELISA of IL-1β and IL-6 in supernatant of R837 stimulated PBMCs; type: cell-based, human; details: R837-stimulated human PBMCs
Procedure: as §1
RAW264.7 cells (5×10^5/ml), BMDMs (5×10^5/ml) and PBMCs (2×10^6/ml) were plated in 96-well plates and incubated overnight. […]
as §2

[3] = tested on: TLR7-mediated IRAK4/IKKβ/IRF5 signaling pathway; experiment: Western blot, IRAK4/IKKβ/IRF5 in R837-stimulated RAW264.7 cells; type: cell-based, mouse; details: R837-stimulated RAW264.7
Procedure: RAW264.7 cells (2×10^6 cells/well) were plated into 6-well plates and then incubated at 37°C in 5% CO2 for 24 h. After incubated with various concentrations of EFL2 (1, 5 and 10 µM) for 1 h, cells were then stimulated by R837 (20 μg/ml) for 30 min. Cell lysates were prepared by direct lysis in 20 µL IP buffer (Beyotime Biotechnology, Shanghai, China). After obtaining the whole cell extracts, the cytosolic and nuclear were seperated using Nuclear and Cytoplasmic Protein Extraction Kit (Beyotime Biotechnology, Shanghai, China). BCA Protein Assay Kit (Beyotime Biotechnology, Nantong, China) was applied to determine the protein concentrations. The bands corresponding to p- IKKα/β, IKKα/β, p-IκBα, IκBα, p-p65, p65, p-IRAK4, IRAK4, p-IKKβ, IKKβ, p-IRF5, IRF5, β-actin and Lamin B were visualized using a Western Blot Detection Chemiluminescence Kit (Merck). Protein extracted from the total lysates/cytoplasm and nucleus was quantified in relation to β-actin and Lamin B bands, respectively.
The antibodies used in the experiments were as follows: rabbit anti-mouse IKKα/β polyclonal antibody (1:1,000, Abways, China), rabbit anti-mouse IκBα polyclonal antibody (1:1,000, Abgent, China), rabbit anti-mouse p65 polyclonal antibody (1:1,000, Abgent, China), rabbit anti-mouse phosphorylated IKKα (Ser176)/β (Ser177) (1:1,000, Abways, China), rabbit anti-mouse phosphorylated IκBα (1:1,000, Abcam, United States), rabbit anti-mouse phosphorylated p65 (1:1,000, Abcam, United States), rabbit anti-mouse IRAK4 polyclonal antibody (1:1,000, Proteintech, United States), rabbit anti-mouse phosphorylated IRAK4 (Thr345/Ser346) (1:1,000, Affinity, United States), rabbit anti-mouse IKKβ polyclonal antibody (1:1,000, Abbkine, United States), rabbit anti-mouse phosphorylated IKKβ (Ser177) (1:1,000, Abways, China), rabbit anti-mouse IRF5 polyclonal antibody (1:1,000, Immunoway, United States), rabbit anti-mouse phosphorylated IRF5 (Ser437) (1:1,000, Affinity, United States), anti-mouse actin monoclonal antibody (1:20,000, Transgen, China) and rabbit anti-mouse LaminB monoclonal antibody (1:5,000, Abways, China).

C=C1C(OC(=O)c2ccccc2)CC2C(C=C(C)C(=O)C3(OC(C)=O)CC(C)C(OC(=O)c4ccccc4)C3C1OC(C)=O)C2(C)C (centres unmarked) [EFL2, Euphorbia factor L2]
levels of IL-1β and IL-6 in the supernatant ([1]; BMDMs co-stimulated by poly (I:C) and R837, various concentrations of EFL2): to different expent decreased | IL-6 production ([1]; R837-stimulated BMDMs, EFL2 0.1-10 μM): dose-dependently reduced | IL-1β secretion ([1]; R837-stimulated BMDMs, EFL2 at 0.1 μM): effectively inhibit | suppressive effect on IL-1β production compared with IL-6 [2]: prior to that on IL-6 | IRF5 translocation (cytoplasm to nucleus) ([3]; EFL2 at 5 and 10 μM, also immunofluorescence): effectively blocked | phosphorylation of IKKβ ([3]; EFL2 pretreatment 1, 5, 10 μM): significantly suppressed | phosphorylation of IRAK4 ([3]; EFL2 pretreatment 1, 5, 10 μM): significantly suppressed | phosphorylation of IRF5 ([3]; EFL2 pretreatment 1, 5, 10 μM): significantly suppressed
